The source of these data is ChEMBL document CHEMBL1201862, “PubChem BioAssay data set” (2004).

Test systems include A549; DU-145; HCC 2998; HCT-116; HCT-15; HT-29; Hs-578T; K562; LOX IMVI; MCF7; MDA-N; NCI/ADR-RES; OVCAR-3; PC-3; SF-268; SF-295; SR; T47D; UACC-257.
Common to all, as to test: inhibition of tumour cell growth, NCI panel, 48 h

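Where inhibition never reached the appropriate level, the endpoint shown equals the highest concentration tested. Otherwise, values were interpolated linearly from a five-concentration, 48-hour dose response in 96-well plates. At the GI50, growth is halved.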 Activity calls are given as the source filed them. Rule as the data show it: active = GI50 up to about 1.1 µM and inactive = higher.

Regarding `c1cncc(-c2cc(-c3cc(-c4cccnc4)[nH]n3)n[nH]2)c1`, the GI50 with A549 is > 100 µM (inactive); in the assay on DU-145, > 100 µM (inactive); with HCC 2998, > 100 µM (inactive); in the assay with HCT-116 it was > 100 µM (inactive); in the assay on HCT-15 it was above 100 µM; with HT-29, > 100 µM (inactive). In addition, the GI50 in the assay on Hs-578T, in the assay with K562, with LOX IMVI, in the assay on MCF7, with MDA-N and with NCI/ADR-RES was > 100 µM (inactive) in each case. The GI50 with OVCAR-3, in the assay on PC-3, in the assay on SF-268, in the assay on SF-295, with SR and with T47D was > 100 µM (inactive) throughout. Also, the GI50 with UACC-257 is > 100 µM (inactive).
`CN1c2ccc(Cl)cc2C(=O)NC1c1ccc([N+](=O)[O-])s1` (stereo not given): the GI50 in the assay with A549 was 23.5 µM (inactive); in the assay on DU-145 it was 19.3 µM (inactive); in the assay on HCC 2998, 16.1 µM (inactive); with HCT-116, 15.2 µM (inactive); in the assay on HCT-15, 12.7 µM; in the assay on HT-29 it was 18.9 µM (inactive). For the same compound, the GI50 with Hs-578T was 17.3 µM (inactive); in the assay on K562, 13.3 µM (inactive); in the assay with LOX IMVI, 14.5 µM (inactive); with MCF7, 19.6 µM (inactive); with MDA-N, 16.2 µM (inactive); in the assay on NCI/ADR-RES, 15.3 µM (inactive). For the same compound, the GI50 in the assay on OVCAR-3 is 15.5 µM (inactive); in the assay with PC-3, 16 µM (inactive); in the assay on SF-268 it was 3.75 µM (inactive); in the assay on SF-295, 21.6 µM (inactive); in the assay with SR, 14.6 µM (inactive); in the assay with T47D it was 15 µM (inactive). In addition, the GI50 in the assay with UACC-257 was 15.1 µM (inactive).
Turning to `C[C@@H](Cl)[C@H]1CCCN(Cc2ccc(Br)cc2)C1`, the GI50 in the assay with A549 is > 12.5 µM (inactive); in the assay on DU-145 it was > 12.5 µM (inactive); with HCC 2998 it was > 12.5 µM (inactive); in the assay with HCT-15, above 12.5 µM; in the assay with HT-29, > 12.5 µM (inactive); with Hs-578T, > 12.5 µM (inactive). Further, the GI50 in the assay on K562, in the assay on LOX IMVI, in the assay with MCF7, with MDA-N, in the assay on NCI/ADR-RES and in the assay on OVCAR-3 was > 12.5 µM (inactive) in each case. Further, the GI50 in the assay with PC-3, in the assay on SF-268, in the assay with SF-295, with SR, with T47D and in the assay with UACC-257 was > 12.5 µM (inactive) each time.
As to `O=[N+]([O-])c1ccc(CN(CCCl)OCCCl)cc1`, the GI50 in the assay with A549 is 67.6 µM (inactive); in the assay with DU-145, > 100 µM (inactive); in the assay on HCC 2998, 84.1 µM (inactive); in the assay with HCT-116 it was 80.7 µM (inactive); with HCT-15 it was 91 µM; in the assay with HT-29, > 100 µM (inactive). Further, the GI50 was > 100 µM (inactive) in the assay on Hs-578T; 33.8 µM (inactive) in the assay on K562; 55.7 µM (inactive) in the assay with LOX IMVI; 83.4 µM (inactive) in the assay on MCF7; > 100 µM (inactive) in the assay with MDA-N; > 100 µM (inactive) in the assay with NCI/ADR-RES. For the same compound, the GI50 is > 100 µM (inactive) in the assay with OVCAR-3; 26.8 µM (inactive) in the assay on PC-3; > 100 µM (inactive) in the assay with SF-268; > 100 µM (inactive) with SF-295; 65 µM (inactive) in the assay with SR; 74.5 µM (inactive) with T47D. Also, in the assay with UACC-257, the GI50 is 70.1 µM (inactive).
Regarding `Cc1cc(S(=O)(=O)Nc2nc(N)nc(N3N=CCC3C)n2)c(S)cc1Cl` (stereo not given), the GI50 is > 10 µM (inactive) in the assay on A549; > 10 µM (inactive) in the assay on DU-145; > 10 µM (inactive) with HCC 2998; > 10 µM (inactive) in the assay with HCT-116; above 10 µM in the assay with HCT-15; > 10 µM (inactive) in the assay on HT-29. The GI50 in the assay on Hs-578T, with K562, with LOX IMVI, in the assay with MCF7, with MDA-N and in the assay on NCI/ADR-RES was > 10 µM (inactive) throughout. The GI50 in the assay with OVCAR-3, with PC-3, with SF-268, in the assay with SF-295, in the assay on SR and in the assay with T47D was > 10 µM (inactive) each time. For the same compound, the GI50 in the assay with UACC-257 was > 10 µM (inactive).
Turning to `CCOC(=O)c1ccc(/N=C2/C(=S)N(c3ccc(C(=O)OCC)cc3)C(=N)N2/N=C/c2ccccc2)cc1`, the GI50 in the assay on A549 was 30 µM (inactive); in the assay with DU-145, 37.3 µM (inactive); in the assay with HCC 2998, 21.8 µM (inactive); in the assay on HCT-116, 6.11 µM (inactive); in the assay on HCT-15, 27.3 µM; with HT-29, 18.4 µM (inactive). Also, the GI50 with Hs-578T was 47 µM (inactive); in the assay on K562, 3.7 µM (inactive); in the assay with MCF7, 6.68 µM (inactive); in the assay with MDA-N, 12.1 µM (inactive); in the assay with NCI/ADR-RES, 38.3 µM (inactive); in the assay with OVCAR-3 it was 13.1 µM (inactive). For the same compound, the GI50 was 2.61 µM (inactive) in the assay with PC-3; 16.2 µM (inactive) with SF-268; 26.7 µM (inactive) in the assay with SF-295; 3.52 µM (inactive) with SR; 2.77 µM (inactive) in the assay on T47D; > 10 µM (inactive) with UACC-257.
Regarding `Cc1cc(-c2nc3ccc(F)cc3s2)ccc1NC(=O)[C@H](C)N`, the GI50 in the assay on A549 is 5.83 µM (inactive); with DU-145, 12.7 µM (inactive); in the assay with HCC 2998 it was 0.428 µM (active); in the assay on HCT-116, 3.28 µM (inactive); with HCT-15, 3.79 µM; in the assay with HT-29, 2.56 µM (inactive). For the same compound, the GI50 in the assay on Hs-578T was 10.8 µM (inactive); with LOX IMVI, 1.99 µM (inactive); with MCF7, < 0.0186 µM (active); with MDA-N, 2.61 µM (inactive); in the assay with NCI/ADR-RES, 13.2 µM (inactive); in the assay with OVCAR-3, 8.59 µM (inactive). Besides, the GI50 in the assay with PC-3 was 11.9 µM (inactive); with SF-268, 10 µM (inactive); with SF-295 it was 9.71 µM (inactive); in the assay with SR it was 2.07 µM (inactive); with T47D it was 0.0559 µM (active); with UACC-257, 5.04 µM (inactive).
On to `CC(C)[C@H](NC(=O)[C@@H](O)[C@H](N)Cc1ccccc1)C(=O)N[C@@H](Cc1ccccc1)C(=O)O`, for which the GI50 with A549 is > 100 µM (inactive); in the assay on DU-145, > 100 µM (inactive); with HCC 2998 it was > 100 µM (inactive); in the assay with HCT-116, > 100 µM (inactive); with HCT-15 it was above 100 µM; in the assay with Hs-578T, > 100 µM (inactive). Besides, the GI50 in the assay with K562, in the assay with LOX IMVI, in the assay on MCF7, in the assay on MDA-N, in the assay with NCI/ADR-RES and in the assay with OVCAR-3 was > 100 µM (inactive) in each case. The GI50 in the assay with PC-3, in the assay on SF-268, in the assay on SF-295, in the assay with SR, in the assay on T47D and in the assay with UACC-257 was > 100 µM (inactive) in each case.
Turning to `O=C(NNc1cn[nH]c(=O)n1)c1cccc2nc3ccccc3nc12`, the GI50 is > 100 µM (inactive) in the assay with A549; 85.3 µM (inactive) in the assay with DU-145; 25.1 µM (inactive) in the assay with HCC 2998; > 100 µM (inactive) with HCT-116; above 100 µM in the assay on HCT-15; > 100 µM (inactive) with HT-29. Moreover, the GI50 in the assay on Hs-578T is 63.2 µM (inactive); with K562, 47.9 µM (inactive); in the assay on LOX IMVI, 38.8 µM (inactive); with MCF7, > 100 µM (inactive); in the assay with MDA-N, > 100 µM (inactive); in the assay with NCI/ADR-RES it was > 100 µM (inactive). The GI50 with OVCAR-3 is 68.7 µM (inactive); in the assay on PC-3, > 100 µM (inactive); in the assay with SF-268, 38.7 µM (inactive); in the assay on SF-295 it was 30.2 µM (inactive); with SR it was 10.7 µM (inactive); with T47D, > 100 µM (inactive). Also, the GI50 in the assay on UACC-257 is > 100 µM (inactive).
For `COc1ccccc1NC(=O)C(=O)Cc1cnc2ccccc2n1`, the GI50 in the assay with A549 is > 100 µM (inactive); in the assay with DU-145 it was > 100 µM (inactive); in the assay on HCC 2998 it was > 100 µM (inactive); in the assay on HCT-116, > 100 µM (inactive); in the assay on HCT-15, above 100 µM; in the assay on HT-29 it was > 100 µM (inactive). In addition, the GI50 in the assay with Hs-578T, in the assay with K562, with LOX IMVI, in the assay on MCF7, in the assay on MDA-N and in the assay with NCI/ADR-RES was > 100 µM (inactive) throughout. Moreover, the GI50 in the assay on OVCAR-3, in the assay with PC-3, in the assay with SF-268, in the assay on SF-295, in the assay with SR and in the assay on T47D was > 100 µM (inactive) each time. The GI50 with UACC-257 was > 100 µM (inactive).
On to `O=C1NC2(CCN(CCc3ccccc3)CC2)Oc2ccccc21`, for which the GI50 in the assay on A549 was 64.6 µM (inactive); in the assay on DU-145 it was > 100 µM (inactive); in the assay with HCC 2998, 62.1 µM (inactive); with HCT-116 it was 55.2 µM (inactive); with HCT-15, 46.3 µM; in the assay with HT-29, 38 µM (inactive). In addition, the GI50 in the assay on Hs-578T was 15.3 µM (inactive); with K562, 32.5 µM (inactive); in the assay on LOX IMVI, 53.7 µM (inactive); in the assay with MCF7, 46.5 µM (inactive); with MDA-N it was 41.6 µM (inactive); in the assay on NCI/ADR-RES, 38.2 µM (inactive). Also, the GI50 with OVCAR-3 is 77.6 µM (inactive); in the assay on PC-3 it was 33.9 µM (inactive); in the assay with SF-268, > 100 µM (inactive); in the assay on SF-295, 49.2 µM (inactive); with SR, 52.7 µM (inactive); in the assay with T47D, 49.7 µM (inactive). In addition, the GI50 in the assay with UACC-257 was 37.8 µM (inactive).
